Earlier results as cited in patent publication US20130029862A1, “Clinical application utilizing genetic data for effective medication management” (priority 2011, published 2013).

How the values were obtained:
[1] = carriers of C allele compared to T/T homozygotes, ApoE rs7412
[2] = Met/Met (A/A) compared to Val/Val (G/G), COMT rs4680

Row | SMILES | weight gain [1] | response with antidepressant [2]
1 | Cc1cc2c(s1)Nc1ccccc1N=C2N1CCN(C)CC1 [olanzapine] | likely to gain weight on olanzapine | –
2 | Fc1ccc([C@@H]2CCNC[C@H]2COc2ccc3c(c2)OCO3)cc1 [paroxetine] | – | Better response with antidepressant
